Assay results: patent US9382549B2, “Glyphosate resistant plants and associated methods” (DOW AGROSCIENCES LLC, priority 2012, dated 2016)

Tests used:
T1 Arabidopsis [1] = assay: T1 Arabidopsis response to postemergence glyphosate, visual % injury (dgt-28, dgt-32, dgt-33, dgt-3, dgt-7); type: in vivo, Arabidopsis thaliana
Description: Transgenic T1 Arabidopsis plants containing the dgt-28 transgene were sprayed with differing rates of glyphosate. Elevated rates were applied in this study to determine the relative levels of resistance (105, 420, 1,680 or 3,360 g ae/ha). A typical 1× usage rate of glyphosate that will control non-transformed Arabidopsis is 420 g ae/ha. […] The T1 Arabidopsis plants that were used in this study were variable copy number for the dgt-28 transgene. The low copy dgt-28 T1 Arabidopsis plants were self-pollinated and used to produce T2 plants.
The Arabidopsis T1 transformants were first selected from the background of untransformed seed using a glufosinate selection scheme. Three flats or 30,000 seed were analyzed for each T1 construct. The T1 plants selected above were molecularly characterized and representative plants with variable copy number were subsequently transplanted to individual pots and sprayed with various rates of commercial glyphosate as previously described. The response of these plants is presented in terms of % visual injury 2 weeks after treatment (WAT). […] An arithmetic mean and standard deviation is presented for each construct used for Arabidopsis transformation. The range in individual response is also indicated in the last column for each rate and transformation. Wild-type, non-transformed Arabidopsis (c.v. Columbia) served as a glyphosate sensitive control.

[2] = test system: untransformed B104 maize line; assay: Growth inhibition dosage response of maize cells on glyphosate; type: cell-based, Zea mays
[3] = test system: T1 wheat, Bobwhite MPB26RH; assay: Wheat detailed phenotypic screen (glyphosate 420-3360 g ai/ha); type: in vivo, Triticum aestivum; details: untransformed donor wheat
Procedure: Four replicates of 12 T1 seeds per selected event and eight replicates (12 seeds each) of the untransformed donor wheat line Bobwhite MPB26RH were sown in 85 mm pots and grown to the 2-leaf stage under well-watered conditions at 25° C. with supplementary lighting providing a 12 hour photoperiod. The pots were placed in a randomised design to allow environmental effects to be removed during data analysis. At the 2-leaf stage, plant length and number of leaves was recorded for each plant before spraying with glyphosate. The first, second, third and fourth replicate of T1 plants for each selected event and the untransformed donor wheat line were sprayed at a dose rate of 420, 840, 1680 and 3360 g ai/ha, respectively. The fifth, sixth, seventh and eighth replicate of untransformed donor wheat line (total 48 plants) were not sprayed. At 7, 14 and 21 days after spraying, the plants were scored for plant length, number of leaves and phenotypic response to glyphosate using the scoring scale in Table 37. Any morphological abnormalities were also recorded. For scoring, the scorer was “blinded” with regard to plant genotype and spray dose rate to prevent scoring bias. Plants with delayed germination and poor establishment (criteria: plant length <6 cm) at the pre-spray scoring were excluded from subsequent analyses.
This differentiation was maximal at 21 days and was observed across all glyphosate dose rates. Table 41. To assess the tolerance of the transgenic events to glyphosate at each spray dose rate, null T1 plants (i.e., plants not carrying the transgene) were excluded from subsequent analyses. T1 plants with a response score of less than three at 21 days after spraying were considered to have the null genotype. […]

T1 Arabidopsis [4] = assay: dgt-31, dgt-32, dgt-33 v1 T1 Arabidopsis response to glyphosate, visual % injury 2 WAT; type: in vivo, Arabidopsis thaliana
Description: T1 plants were sampled and copy number analysis for the dgt-31, dgt-32, and dgt-33 v1 gene were completed. T1 plants were then assigned to various rates of glyphosate so that a range of copies were among each rate. For Arabidopsis, 26.25 g ae/ha glyphosate is an effective dose to distinguish sensitive plants from ones with meaningful levels of resistance. Elevated rates were applied to determine relative levels of resistance (105, 420, 1680, or 3360 g ae/ha).
All glyphosate herbicide applications were made by track sprayer in a 187 L/ha spray volume. Glyphosate used was of the commercial Durango dimethylamine salt formulation (480 g ae/L, Dow AgroSciences, LLC).
T1 plants selected above were subsequently transplanted to individual pots and sprayed with various rates of commercial glyphosate. Table 15 compares the response of dgt-31, dgt-32, and dgt-33 v1 and control genes to impart glyphosate resistance to Arabidopsis T1 transformants. Response is presented in terms of % visual injury 2 WAT. […] An arithmetic mean and standard deviation is presented for each treatment. The range in individual response is also indicated in the last column for each rate and transformation. Wild-type non-transformed Arabidopsis (cv. Columbia) served as a glyphosate sensitive control. […]

T0 corn = assay: T0 dgt-28 corn postemergence glyphosate tolerance; type: in vivo, Zea mays
Procedure: Zea mays dgt-28 transformation events (T0) were allowed to acclimate in the greenhouse and were grown until plants had transitioned from tissue culture to greenhouse growing conditions (i.e., 2-4 new, normal looking leaves had emerged from the whorl). Plants were grown at 27° C. under 16 hour light:8 hour dark conditions in the greenhouse. The plants were then treated with commercial formulations of DURANGO DMA™ (containing the herbicide glyphosate) with the addition of 2% w/v ammonium-sulfate. Herbicide applications were made with a track sprayer at a spray volume of 187 L/ha, 50-cm spray height. T0 plants were sprayed with a range of glyphosate from 280-4480 g ae/ha glyphosate, which is capable of significant injury to untransformed corn lines. A lethal dose is defined as the rate that causes >95% injury to the B104 inbred.
T0 events of dgt-28 linked with TraP4, TraP5, TraP8 and TraP23 were generated by Agrobacterium transformation and were allowed to acclimate under controlled growth chamber conditions until 2-4 new, normal looking leaves had emerged from the whorl. Plants were assigned individual identification numbers and sampled for copy number analyses of both dgt-28 and aad-1. Based on copy number analyses, plants were selected for protein expression analyses. […]

[5] = test system: EPSP synthase (DGT enzymes); assay: Steady-state kinetic parameters of DGT enzymes (Km for PEP, kcat/Km); type: biochemical
Procedure: The enzyme activities of wild-type (WT) and mutant DGTs were measured by inorganic phosphate (Pi) production in a modified procedure described by Lanzetta et al. (1979) Anal. Bioch. […] Assays were performed in 96-well plate format in a total of 50 μL on a Spectra-Max 190 plate reader (Molecular Devices, Sunnyvale, Calif.). Typical assays contained 50 mM HEPES pH 7.5, 150 mM KCl, 2 mM DTT, and 1 mM S3P. […] Assays were initiated by addition of the DGT enzyme at concentrations that varied between 0.01-1 μM. Reactions were terminated by the addition of 235 μL of a 3:1 mixture of malachite green: ammonium molybdate solution. After complete color development (˜1 minute), the absorbance change at 660 nm was recorded and the amount of Pi formed was calculated from a standard curve. Control reactions lacking enzyme were used to correct for background absorbance. […] The data were fitted to the Michaelis-Menten equation which allowed for the determination of Km and Vmax (Equation 3) while IC50 was determined from Equation 4, where y is the relative activity and s is the Hill coefficient. Data were analyzed using GRAFIT™ version 5 software (Erithacus Software Limited, Horley, U.K.).

[6] = 420 g ai/ha, Replicate 1, 10 plants pre-spray
[7] = 840 g ai/ha, Replicate 2, 10 plants pre-spray
[8] = 1680 g ai/ha, Replicate 3, 11 plants pre-spray
[9] = 3360 g ai/ha, Replicate 4, 10 plants pre-spray

O=C(O)CNCP(=O)(O)O [glyphosate, N-(phosphonomethyl) glycine]
typical 1× usage rate of glyphosate that will control non-transformed Arabidopsis (T1 Arabidopsis [1]): 420 g ae/ha
glyphosate concentration sufficient to inhibit cell growth [2]: ≥ 0.25 mM
No. surviving plants at 14 days after spraying [3, 6]: 0
No. surviving plants at 21 days after spraying [3, 6]: 0
No. surviving plants at 14 days after spraying [3, 7]: 3
No. surviving plants at 21 days after spraying [3, 7]: 0
No. surviving plants at 14 days after spraying [3, 8]: 0
No. surviving plants at 21 days after spraying [3, 8]: 0
No. surviving plants at 14 days after spraying [3, 9]: 1
No. surviving plants at 21 days after spraying [3, 9]: 0
effective dose to distinguish sensitive plants from ones with meaningful levels of resistance (T1 Arabidopsis [4]; Arabidopsis): 26.25 g ae/ha
glyphosate rate controlling non-transformed plants (T0 corn): ≥ 280 g ae/ha

B1: DGT-28 v1: native EPSP synthase of Streptomyces sviceus (SEQ ID NO:1), N-terminal 6×His tag, E. coli expressed (protein, listed as Streptomyces sviceus)
chain: MRGMPALSLPGSKSITARALFLAAAADGVTTLVRPLRSDDTEGFAEGLVRLGYRVGRTPDTWQVDGRPQGPAVAEADVYCRDGATTARFLPTLAAAGHGTYRFDASPQMRRRPLLPLSRALRDLGVDLRHEEAEGHHPLTVRAAGVEGGEVTLDAGQSSQYLTALLLLGPLTRQGLRIRVTDLVSAPYVEITLAMMRAFGVEVAREGDVFVVPPGGYRATTYAIEPDASTASYFFAAAALTPGAEVTVPGLGTGALQGDLGFVDVLRRMGAEVSVGADATTVRGTGELRGLTANMRDISDTMPTLAAIAPFASAPVRIEDVANTRVKECDRLEACAENLRRLGVRVATGPDWIEIHPGPATGAQVTSYGDHRIVMSFAVTGLRVPGISFDDPGCVRKTFPGFHEAFAELRRGIGS
modifications: N-terminal 6xHis tag
catalytic efficiency [5]: 132000 M⁻¹ s⁻¹
Km ([5]; read-out: KM^PEP): 91.6 µM

B2: DGT-31 (v1): Streptomyces EPSP synthase (GENBANK YP_004922608.1) (protein)
chain: MTVIDIPGSKSVTARALFLAAAADGTTTLLRPLHSDDTEGFTEGLTRLGYAVVREPDRWHIEGRPSGPAAADAEVHCRDGATTARFLPTLAAAAASGTYRFDASAQMRRRPLAPLTEALRTLGVDLRHDGAEGHHPLTIQASGVKGGGLTLDAGESSQYLTALLMLGPLTAEGLRIEVTELVSAPYVEITLAMMRGFGVEVVREGNTFTVPPGGYRATTYAIEPDASTASYFFAAAALTGREVTVPGLGTGALQGDLRFTEVLRRMDADVRTTSDSTTVRSDGRLAGLTVNMRDISDTMPTLAAIAPYASSPVRIEDVANTRVKECDRLEACAQNLRSMGITVRTGPDWIEIHPGTPRPTEIATHGDHRIVMSFAVAGLRTPGMSYDDPGCVRKTFPRFHEEFAAFVERSSAGE
modifications: DGT-31 protein
tolerance to glyphosate (T1 Arabidopsis [4]; T1 Arabidopsis, DGT-31 with TraP23, DGT-32, DGT-33 with TraP8, TraP14, TraP24): slight herbicide tolerance
